Source: patent publication US7829754B2, “Method of cleaning heavy metals-containing soil” (Chubu Electric Power Co., Inc., priority 2004, dated 2010)
Read-outs that look alike come from different tables or passages of the source.

How the values were obtained:
[1] = assay type: physicochemical
Procedure: <Experiment 1. Test of Comparing Lead Dissolving Out Ability of Chelating Agent>
In order to study a kind of a chelating agent to be added to a contaminated soil, the lead dissolving out abilities of 26 types of chelating agents (chelate reagents) were compared (FIG. 2).
2) Chelating agent: Each chelating agent of 100 mmol·dm^−3 and pH 5.8 was prepared.
3) Five grams of 1) the subject soil and 50 ml of 2) the chelating agent were put into to a 100 ml vessel, and shaken (200 times/min) at 20° C. for 6 hours. Repeated cycle was 3.
4) For comparison, a contrast section was prepared, in which desalted water was added instead of the chelating agent in the 3).
5) After shaking, the sample after filtration was centrifuged at 15000 rpm for 5 minutes, and the supernatant liquid was further centrifuged again under the same condition.
6) From the separated supernatant liquid, a lead concentration was measured with an inductively coupled high frequency plasma spectrometry (ICP) device.

Fagopyrum esculentum [2] = settings: for Terrestrial lead accumulated amount, fold of EDTA-2Na at the same concentration / Terrestrial lead accumulated amount, fold of contrast section / Leaf dry weight / Stem dry weight / Stem lead concentration / Terrestrial dry weight / Terrestrial part lead accumulation amount / Terrestrial part lead concentration: soil B; for Leaf lead concentration: soil B (lead 13032 mg/kg), added one week before harvesting
Procedure: A lead concentration in a soil or a plant body was analyzed using ICP-AES (inductively coupled plasma-atomic emission spectrometry) regarding a sample obtained by adding nitric acid and degrading this with a microwave.
A cultivating experiment was conducted as follows: in which Fagopyrum esculentum and Brassica juncca were cultivated in a lead-containing soil filled in a Wagnel pot, a chelating agent was further added to the soil, and a difference in a lead accumulating amount depending on the cultivating condition was examined.
In addition, considering influence on plants and environment such as a salt concentration damage, 1, 5, 10 and 20 mmol kg^−1 soil of chemical reagents were adopted as an addition concentration, and 300 ml/pot (soil 3 kg) was provided as an addition amount.
1) Test plant: Fagopyrum esculentum, trade name (Milkyway), Brassica juncea
2) Test soil: Soil B (sampled from an old firing range site, soil lead concentration 13032 mg/kg), contrast sample (mountain sand in Gifu Prefecture of Japan, soil lead concentration 21 mg/kg)

Fagopyrum esculentum [3] = assay: Fagopyrum esculentum growth situation after addition of chelating agent
Procedure: 3) The soil B (3 kg) and the contrast section soil (4.3 kg) which had been passed through a sieve (2 mm) were mixed with urea (N: 69 mg/kg soil), calcium superphosphate (P: 75 mg/kg soil), potassium chloride (K: 72 mg/kg soil), and magnesia lime (Mg: 67 mg/kg soil), and sufficiently stirred. 4) The test soil was filled into a Wagnel pot (1/5000a), and a plant was seeded (3 pits/pot, 3 grains/pit). 5) Four to five days after germination, the plant was thinned out to 3 individuals/pot. 6) Cultivation in a gross chamber (Environmental Condition) Temperature: 25° C.×12 h (8:00-20:00), 20° C.×12 h (20:00-8:00) Humidity: 60% Illumination: light condition (8:00-20:00), dark condition (20:00-8:00) Illuminance: 98001×, 180μ mmol˜m^−2·s^−1 7) Aspersion was performed at 100 ml/pot every day. 8) During a test term, a position of a pot was changed four times. 9) Individuals which were about to fall were induced by a support post. 10) One week before harvesting, a chelating agent at each concentration was added to the soil B. An addition amount was 300 ml/pot, and the chelating agent was carefully added to a surface of the soil so that the chelating agent was not contacted with the plant. On the day before addition of the chelating agent and on the day of addition, aspersion was not performed. […] 12) Repeated cycles in all sections were 3 (3 pots/test section).

[4] = chelating agent 100 mmol·dm^−3, pH 5.8, Soil A, shaken at 20° C. for 6 hours, FIG. 2
[5] = chelating agent 10 mmol/kg soil
[6] = chelating agent 20 mmol/kg soil
[7] = four days after addition, 1 mmol/kg soil
[8] = four days after addition, 5 mmol/kg soil
[9] = four days after addition, 10 mmol/kg soil
[10] = four days after addition, 20 mmol/kg soil
[11] = two days after addition, 20 mmol/kg soil

Compound: O=C([O-])CC(NCCNC(CC(=O)O)C(=O)[O-])C(=O)[O-].[Na+].[Na+].[Na+] (stereo not shown) [EDDS·3Na, disodium ethylenediamine succinate]
- lead dissolving out ability ([1]; pH 5.8): high lead dissolving out ability

Compound: N[C@@H](CS)C(=O)O [L-cysteine]
- lead dissolving out ability [1, 4]: high lead dissolving out ability

Compound: CC(C(=O)[O-])N(CC(=O)[O-])CC(=O)[O-].[Na+].[Na+].[Na+] (stereo not shown) [MGDA · 3Na, trisodium methylglycine diacetate]
- lead dissolving out ability [1, 4]: high lead dissolving out ability
- Terrestrial lead accumulated amount, fold of EDTA-2Na at the same concentration (Fagopyrum esculentum [2]; 10 mmol/kg soil): 1.6 fold
- Terrestrial lead accumulated amount, fold of contrast section (Fagopyrum esculentum [2]; 10 mmol/kg soil): 3.4 fold
- Terrestrial lead accumulated amount, fold of EDTA-2Na at the same concentration (Fagopyrum esculentum [2]; 20 mmol/kg soil): 1.3 fold
- Terrestrial lead accumulated amount, fold of contrast section (Fagopyrum esculentum [2]; 20 mmol/kg soil): 3.7 fold
- addition effect on lead concentration in stems (Fagopyrum esculentum [2]; 10, 20 mmol/kg soil, contrast section 2043 mg/kg): high addition effect
- addition effect on lead concentration in leaves (Fagopyrum esculentum [2]; 10, 20 mmol/kg soil, contrast section 7971 mg/kg): high addition effect
- Leaf dry weight (Fagopyrum esculentum [2]; chelating agent 1 mmol/kg soil): 0.9422 g/plant
- Stem dry weight (Fagopyrum esculentum [2]; chelating agent 1 mmol/kg soil): 1.9496 g/plant
- Stem lead concentration (Fagopyrum esculentum [2]; chelating agent 1 mmol/kg soil): 2310 mg/kg
- Terrestrial dry weight (Fagopyrum esculentum [2]; chelating agent 1 mmol/kg soil): 2.8918 g/plant
- Terrestrial part lead accumulation amount (Fagopyrum esculentum [2]; chelating agent 1 mmol/kg soil): 0.0130 g/plant
- Terrestrial part lead concentration (Fagopyrum esculentum [2]; chelating agent 1 mmol/kg soil): 4484 mg/kg
- Leaf lead concentration (Fagopyrum esculentum [2]; chelating agent 1 mmol/kg soil): 8981 mg/kg
- Leaf dry weight (Fagopyrum esculentum [2]; chelating agent 5 mmol/kg soil): 0.8863 g/plant
- Stem dry weight (Fagopyrum esculentum [2]; chelating agent 5 mmol/kg soil): 1.8543 g/plant
- Stem lead concentration (Fagopyrum esculentum [2]; chelating agent 5 mmol/kg soil): 2384 mg/kg
- Terrestrial dry weight (Fagopyrum esculentum [2]; chelating agent 5 mmol/kg soil): 2.7406 g/plant
- Terrestrial part lead accumulation amount (Fagopyrum esculentum [2]; chelating agent 5 mmol/kg soil): 0.0156 g/plant
- Terrestrial part lead concentration (Fagopyrum esculentum [2]; chelating agent 5 mmol/kg soil): 5690 mg/kg
- Leaf lead concentration (Fagopyrum esculentum [2]; chelating agent 5 mmol/kg soil): 12607 mg/kg
- Leaf dry weight (Fagopyrum esculentum [2]; [5]): 0.7343 g/plant
- Stem dry weight (Fagopyrum esculentum [2]; [5]): 1.5023 g/plant
- Stem lead concentration (Fagopyrum esculentum [2]; [5]): 10098 mg/kg
- Terrestrial dry weight (Fagopyrum esculentum [2]; [5]): 2.2366 g/plant
- Terrestrial part lead accumulation amount (Fagopyrum esculentum [2]; [5]): 0.0399 g/plant
- Terrestrial part lead concentration (Fagopyrum esculentum [2]; [5]): 17858 mg/kg
- Leaf lead concentration (Fagopyrum esculentum [2]; [5]): 33735 mg/kg
- Leaf dry weight (Fagopyrum esculentum [2]; [6]): 0.5582 g/plant
- Stem dry weight (Fagopyrum esculentum [2]; [6]): 1.3716 g/plant
- Stem lead concentration (Fagopyrum esculentum [2]; [6]): 16437 mg/kg
- Terrestrial dry weight (Fagopyrum esculentum [2]; [6]): 1.9298 g/plant
- Terrestrial part lead accumulation amount (Fagopyrum esculentum [2]; [6]): 0.0441 g/plant
- Terrestrial part lead concentration (Fagopyrum esculentum [2]; [6]): 22848 mg/kg
- Leaf lead concentration (Fagopyrum esculentum [2]; [6]): 38601 mg/kg
- Terrestrial part lead accumulation amount (Fagopyrum esculentum [2]; per unit area, calculated, chelating agent 1 mmol/kg soil): 1.95 g/m^2
- Terrestrial part lead accumulation amount (Fagopyrum esculentum [2]; per unit area, calculated, chelating agent 5 mmol/kg soil): 2.34 g/m^2
- Terrestrial part lead accumulation amount (Fagopyrum esculentum [2]; per unit area, calculated, chelating agent 10 mmol/kg soil): 5.99 g/m^2
- Terrestrial part lead accumulation amount (Fagopyrum esculentum [2]; per unit area, calculated, chelating agent 20 mmol/kg soil): 6.62 g/m^2
- Discoloration of leaf (number of individuals for which symptom was observed) (Fagopyrum esculentum [3]; [7]): 3
- Leaf drop (number of individuals for which symptom was observed) (Fagopyrum esculentum [3]; [7]): 1
- Wilting of leaf (number of individuals for which symptom was observed) (Fagopyrum esculentum [3]; [7]): 1
- Discoloration of leaf (number of individuals for which symptom was observed) (Fagopyrum esculentum [3]; [8]): 3
- Wilting of leaf (number of individuals for which symptom was observed) (Fagopyrum esculentum [3]; [8]): 1
- Discoloration of flower (number of individuals for which symptom was observed) (Fagopyrum esculentum [3]; [9]): 5
- Discoloration of leaf (number of individuals for which symptom was observed) (Fagopyrum esculentum [3]; [9]): 2
- Leaf drop (number of individuals for which symptom was observed) (Fagopyrum esculentum [3]; [9]): 2
- Wilting of leaf (number of individuals for which symptom was observed) (Fagopyrum esculentum [3]; [9]): 6
- Discoloration of flower (number of individuals for which symptom was observed) (Fagopyrum esculentum [3]; [10]): 9
- Discoloration of leaf (number of individuals for which symptom was observed) (Fagopyrum esculentum [3]; [10]): 9
- Leaf drop (number of individuals for which symptom was observed) (Fagopyrum esculentum [3]; [10]): 7
- Wilting of leaf (number of individuals for which symptom was observed) (Fagopyrum esculentum [3]; [10]): 9
- yellow leaves, spotting and discoloration of leaves, and discoloration of a flower (Fagopyrum esculentum [3]; [10]): confirmed in all individuals
- leaf drop (Fagopyrum esculentum [3]; four days after addition, 20 mmol/kg soil, in words): observed in almost all individuals
- discoloration of leaves (Fagopyrum esculentum [3]; [11]): discoloration of leaves was observed
- leaf drop (Fagopyrum esculentum [3]; [11]): confirmed partially
